The text below walks through data of PubChem BioAssay (NCI).

Each structure is given as a SMILES string.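 Growth conditions: 96-well plates. Treatment: test compound, 48 hours, 5 concentrations. Analysis: linear interpolation between bracketing concentrations; unreached endpoints set to highest concentration. GI50: concentration for 50% inhibition of growth. At the TGI there is no net growth.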

Some test systems named below: HL-60(TB) leukemia; A498 renal; CAKI-1 renal; SF-539 CNS; TK-10 renal; UACC-62 melanoma; NCI-H460 lung; K-562 leukemia; OVCAR-8 ovarian; NCI-H522 lung.
Assay in all cases: NCI tumour cell line growth inhibition, 48 h

For `CC1=CC[C@@H]2CC[C@]3(C)[C@H](CC[C@@H]4[C@@]5(C)CCCNC(C)(C)[C@@H]5CC[C@]43C)[C@H]2[C@@H]1C`, the GI50 in the test on HL-60(TB) leukemia was 1.7 µM; in the test on A498 renal, 1.87 µM; in the test with CAKI-1 renal, 1.69 µM; in the test on SF-539 CNS, 1.69 µM; with TK-10 renal it was 1.81 µM; in the test with UACC-62 melanoma it was 1.77 µM. The GI50 in the test on NCI-H460 lung is 1.48 µM. The TGI in the test with HL-60(TB) leukemia stood at 3.5 µM; with A498 renal, 3.6 µM; in the test on CAKI-1 renal it was 3.05 µM; in the test with SF-539 CNS, 3.13 µM; with TK-10 renal, 3.37 µM; in the test on UACC-62 melanoma it was 3.22 µM. Moreover, the TGI in the test on NCI-H460 lung is 3.09 µM.

Consider `CN1CC(c2ccccc2)N(CCCCN2CC(c3ccccc3)N(C)CC2c2ccccc2)CC1c1ccccc1` (stereo not drawn), for which the TGI with HL-60(TB) leukemia, in the test with A498 renal, with CAKI-1 renal, with K-562 leukemia, with SF-539 CNS and with TK-10 renal was > 100 µM throughout. For the same molecule, the TGI in the test on UACC-62 melanoma, in the test on OVCAR-8 ovarian and in the test with NCI-H460 lung was > 100 µM each time.

Turning to `CCOC(=O)c1cn(-c2ccc(Cl)cc2)c(=O)n2c1nc1ccccc12`, the TGI in the test on A498 renal, with CAKI-1 renal, with K-562 leukemia, with SF-539 CNS, in the test on UACC-62 melanoma and in the test with OVCAR-8 ovarian was > 100 µM throughout. Further, the TGI with NCI-H460 lung is > 100 µM.

As to `C=C1C[C@]23C[C@@]1(O)CC[C@H]2[C@@]12C=C[C@H](O)[C@@](C)(C(=O)O1)[C@H]2[C@@H]3C(=O)O`, the TGI with NCI-H522 lung, in the test on HL-60(TB) leukemia, in the test on CAKI-1 renal, with K-562 leukemia, in the test with SF-539 CNS and with TK-10 renal was > 100 µM throughout. Further, the TGI with UACC-62 melanoma and with NCI-H460 lung was > 100 µM in each case.

Take `CC(C)n1c(=O)n(-c2ccccc2)n(C(C)(C)C)c1=O`: the TGI with HL-60(TB) leukemia, in the test on A498 renal, in the test with CAKI-1 renal, in the test on K-562 leukemia, in the test with SF-539 CNS and with TK-10 renal was > 100 µM throughout. Also, the TGI in the test with UACC-62 melanoma, in the test on OVCAR-8 ovarian and with NCI-H460 lung was > 100 µM in each case.

For the molecule `Cc1ccc(O)c(C2=NNC(c3cccc(Br)c3)C2)c1` (stereo not drawn), the TGI with NCI-H522 lung, with HL-60(TB) leukemia, with CAKI-1 renal, with K-562 leukemia, in the test with SF-539 CNS and in the test on TK-10 renal was > 100 µM each time. The TGI in the test with UACC-62 melanoma, with OVCAR-8 ovarian and in the test on NCI-H460 lung was > 100 µM throughout.

Turning to `CC[N+](CC)=c1ccc2nc3c(cc(N)c4ccccc43)oc-2c1`, the GI50 was 0.134 µM in the test on HL-60(TB) leukemia, 0.174 µM with SF-539 CNS, 0.489 µM in the test on TK-10 renal and 1.07 µM in the test on OVCAR-8 ovarian. Further, the TGI in the test with HL-60(TB) leukemia turned out to be 0.326 µM; in the test with SF-539 CNS it was 0.32 µM; in the test on TK-10 renal it was 1.14 µM; in the test with OVCAR-8 ovarian, 3.43 µM.

As to `CSC1SCC2C(=O)N(C)C3(CC3C)C(=O)OCC(NC(=O)c3nc4ccccc4cc3O)C(=O)NC(C)C(=O)N(C)C1C(=O)N(C)C1(CC1C)C(=O)OCC(NC(=O)c1nc3ccccc3cc1O)C(=O)NC(C)C(=O)N2C` (stereo not drawn), the TGI in the test on HL-60(TB) leukemia was < 0.0001 µM; in the test with A498 renal, < 0.0001 µM; in the test on CAKI-1 renal it was 0.0135 µM; with K-562 leukemia it was < 0.0001 µM; in the test with SF-539 CNS, < 0.0001 µM; with TK-10 renal it was 0.000416 µM. For the same molecule, the values for the TGI with UACC-62 melanoma and in the test with NCI-H460 lung were < 0.0001 µM and 0.875 µM, respectively.

For `CSc1nncc(-c2cc3c(c(SC)n2)CCC3)n1`, the TGI in the test with NCI-H522 lung was > 100 µM; in the test with HL-60(TB) leukemia it was > 100 µM; in the test with CAKI-1 renal, > 100 µM; with TK-10 renal, > 100 µM; with UACC-62 melanoma, > 100 µM; in the test on OVCAR-8 ovarian, 57.1 µM.

As to `COc1c/c(=C2/C=c3ccccc3=N2)[nH]/c1=C/c1[nH]c(C)cc1C`, the GI50 in the test with HL-60(TB) leukemia was 0.05 µM; in the test with A498 renal, 0.267 µM; in the test on CAKI-1 renal, 0.0346 µM; with K-562 leukemia, 0.152 µM; with OVCAR-8 ovarian, 0.0448 µM. The TGI was 2.77 µM in the test with HL-60(TB) leukemia; 4.31 µM in the test with A498 renal; 1.2 µM with CAKI-1 renal; 9.91 µM in the test on K-562 leukemia; > 100 µM in the test with OVCAR-8 ovarian.

`CN1C2CC(=O)CC1[C@@H]1OC(c3ccccc3)O[C@H]21` (stereo partly drawn): the TGI in the test with NCI-H522 lung, in the test with HL-60(TB) leukemia, in the test with CAKI-1 renal, in the test with K-562 leukemia, in the test on SF-539 CNS and with TK-10 renal was > 100 µM throughout. The TGI in the test on UACC-62 melanoma, with OVCAR-8 ovarian and with NCI-H460 lung was > 100 µM in each case.

`Nc1nc2c(ncn2C2C=CC(CO)O2)c(=O)[nH]1` (stereo not drawn): the TGI in the test with A498 renal, in the test on CAKI-1 renal, with TK-10 renal, in the test on OVCAR-8 ovarian and in the test with NCI-H460 lung was > 100 µM each time.

Regarding `CCCCCCCCCCCCCCCCNc1nc(=O)n(C2CC(O)C(CO)O2)cc1F` (stereo not drawn), the TGI in the test with NCI-H522 lung is 20.7 µM; in the test with HL-60(TB) leukemia, 27.7 µM; in the test with CAKI-1 renal it was 23.3 µM; in the test on SF-539 CNS it was 11.4 µM; with TK-10 renal, 27.5 µM; in the test on UACC-62 melanoma it was 22.8 µM. Also, the values for the TGI with OVCAR-8 ovarian and in the test with NCI-H460 lung were 23.9 µM and 27.3 µM, respectively.

For `COC(=O)C1(C(=O)OC)N=C(C)OC1C(C)C` (stereo not drawn), the TGI with HL-60(TB) leukemia, in the test with A498 renal, in the test with CAKI-1 renal, with K-562 leukemia, with TK-10 renal and with OVCAR-8 ovarian was > 100 µM in each case. Further, the TGI with NCI-H460 lung is > 100 µM.

Consider `CCOC(=O)C(Cc1ccccc1)(Cc1ccc(O)cn1)NC(=O)c1ccccc1` (stereo not drawn), for which the TGI is 53.8 µM in the test on NCI-H522 lung; 43.8 µM in the test with HL-60(TB) leukemia; 87 µM in the test with CAKI-1 renal; > 100 µM with K-562 leukemia; 60.6 µM in the test with SF-539 CNS; > 100 µM in the test with TK-10 renal. The TGI is 46 µM in the test with UACC-62 melanoma, > 100 µM with OVCAR-8 ovarian and 99.2 µM in the test with NCI-H460 lung.

Take `O=C1NC(N/N=C\c2ccccc2)=N/C1=C/c1ccc(Cl)cc1`: the TGI in the test with NCI-H522 lung was 44.4 µM; with CAKI-1 renal, > 100 µM; in the test on K-562 leukemia, > 100 µM; with SF-539 CNS, 53.8 µM; in the test with TK-10 renal, > 100 µM; with OVCAR-8 ovarian, 49.6 µM. The molecule also came in with a TGI in the test with NCI-H460 lung of 53.5 µM.

With `CCOC(=O)C(O)(NC(C)=O)C(F)(F)F` (stereo not drawn), the TGI in the test with NCI-H522 lung, with HL-60(TB) leukemia, in the test on CAKI-1 renal, with K-562 leukemia, with SF-539 CNS and in the test on TK-10 renal was > 100 µM each time. The TGI in the test with UACC-62 melanoma and with OVCAR-8 ovarian was > 100 µM throughout.

As to `NC(=O)CC(Nc1ncc2c(n1)-c1ccccc1OC2)C(=O)O` (stereo not drawn), the TGI with NCI-H522 lung was > 100 µM; with HL-60(TB) leukemia, 36.8 µM; with CAKI-1 renal it was > 100 µM; in the test on K-562 leukemia, > 100 µM; with SF-539 CNS, > 100 µM; in the test on TK-10 renal, > 100 µM. In addition, the TGI in the test with UACC-62 melanoma, in the test with OVCAR-8 ovarian and with NCI-H460 lung was > 100 µM throughout.

On to `COC(OC)C(O)C1OC=CC1n1cnc2c(N)ncnc21` (stereo not drawn), for which the TGI with A498 renal, in the test on CAKI-1 renal, in the test on K-562 leukemia, in the test with SF-539 CNS, in the test with TK-10 renal and in the test on UACC-62 melanoma was > 100 µM throughout. Besides, the TGI in the test on NCI-H460 lung was > 100 µM.

As for `CC(C)(C)OC(=O)N1C(OP(=O)(Oc2ccccc2)Oc2ccccc2)=COc2cccnc21`, the TGI was > 100 µM in the test with NCI-H522 lung; 36.6 µM in the test with HL-60(TB) leukemia; > 100 µM in the test on CAKI-1 renal; > 100 µM in the test with K-562 leukemia; > 100 µM in the test with SF-539 CNS; > 100 µM in the test on TK-10 renal. The TGI was > 100 µM in the test on UACC-62 melanoma, > 100 µM in the test with OVCAR-8 ovarian and 94 µM in the test with NCI-H460 lung.

`O=C(c1ccco1)N(C(=S)OCc1ccccn1)c1ccccc1`: the TGI with HL-60(TB) leukemia, with A498 renal, in the test with CAKI-1 renal, with K-562 leukemia, in the test with SF-539 CNS and in the test with TK-10 renal was > 100 µM throughout. Moreover, the TGI in the test on UACC-62 melanoma and with OVCAR-8 ovarian was > 100 µM in each case.

In the case of `N#CCCN(CCCN(C(=O)Nc1ccccc1)c1ccccc1)C(=O)Nc1ccccc1`, the TGI was > 100 µM with NCI-H522 lung; > 100 µM in the test with HL-60(TB) leukemia; 28.6 µM in the test on CAKI-1 renal; > 100 µM with K-562 leukemia; > 100 µM with SF-539 CNS; > 100 µM in the test with TK-10 renal. Moreover, the TGI with UACC-62 melanoma, in the test on OVCAR-8 ovarian and with NCI-H460 lung was > 100 µM in each case.
